Values quoted from earlier work in US20070065542A1 (Board Of Regents, The University Of Texas System, priority 2005, published 2007).
Where two headings read alike, the source gives them in different places.

Key:
[1] = soluble complexes of calcium, from literature
[2] = dissociation constant
[3] = soluble iron complexes and reference complexes, known values
[4] = very high concentration

Q: For `O=C([O-])CC(O)C(=O)[O-].[Ca+2]` (stereo not drawn) [CaMal], which Stability constant [1] is on record?
A: 2.19

Q: With `O=C(O)O` [Carbonate anion] as the molecule, how does the pK1 [2] read?
A: 6.1

Q: And the pK2 [2]?
A: 10.3

Q: With `O=C1O[C@H]([C@@H](O)CO)C(O)=C1O.[Fe+2]` [Ferrous monohydrogen ascorbate] as the molecule, how does the Stability constant [3] read?
A: 1.30

Q: For `CC(O)C(=O)O` (stereo not drawn) [Lactic Acid], which pK1 [2] is on record?
A: 3.87

Q: For `[Cl][Fe]([Cl])[Cl]` [ferric chloride], which “pH at which precipitation of iron occurred” value [4] is on record?
A: 3-4
